Results published in ChEMBL document CHEMBL4376816, “Discovery of the Oral Leukotriene C4 Synthase Inhibitor (1S,2S)-2-({5-[(5-Chloro-2,4-difluorophenyl)(2-fluoro-2-methylpropyl)amino]-3-methoxypyrazin-2-yl}carbonyl)cyclopropanecarboxylic Acid (AZD9898) as a New Treatment for Asthma” (J Med Chem, 2019).
Active and inactive are the calls of the source. The calls are words filed in the database; no cut-off is given here.

Experiments:
[1] = molecular target: T1, Potassium voltage-gated channel subfamily KQT member 1 (Homo sapiens, UniProt P51787); experiment: Inhibition of human KvLQT1 expressed in CHOK1 cells at < 33 uM at -80 mV holding potential by Ionwork-based analysis; assay type: cell-based
T1 sequence (P51787 whole entry): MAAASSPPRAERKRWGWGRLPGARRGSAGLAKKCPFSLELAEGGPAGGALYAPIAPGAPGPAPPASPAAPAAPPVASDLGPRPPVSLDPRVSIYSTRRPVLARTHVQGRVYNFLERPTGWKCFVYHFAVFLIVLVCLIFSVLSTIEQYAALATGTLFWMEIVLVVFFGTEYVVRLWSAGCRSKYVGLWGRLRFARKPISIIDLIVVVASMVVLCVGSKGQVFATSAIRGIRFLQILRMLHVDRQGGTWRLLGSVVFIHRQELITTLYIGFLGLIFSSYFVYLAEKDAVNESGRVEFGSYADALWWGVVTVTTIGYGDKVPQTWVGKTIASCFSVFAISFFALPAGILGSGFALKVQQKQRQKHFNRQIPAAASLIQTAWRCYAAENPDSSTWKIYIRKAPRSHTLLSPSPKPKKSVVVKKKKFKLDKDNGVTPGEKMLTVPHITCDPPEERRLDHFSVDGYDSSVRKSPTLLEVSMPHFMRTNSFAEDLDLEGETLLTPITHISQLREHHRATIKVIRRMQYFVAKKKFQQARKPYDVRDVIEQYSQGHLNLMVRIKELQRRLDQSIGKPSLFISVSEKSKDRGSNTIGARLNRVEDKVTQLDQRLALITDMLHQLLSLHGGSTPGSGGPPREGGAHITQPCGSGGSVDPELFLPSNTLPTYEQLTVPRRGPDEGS

[2] = Effective half life in Beagle dog at 1 mg/kg, iv infusion or 2 mg/kg, po via gavage after 48 hrs; assay type: ADME, organism-based, Canis lupus familiaris; details: in vivo, read-out: t1/2eff (converted)
Cytochrome P450 3A4 = Cytochrome P450 3A4 (Homo sapiens, UniProt P08684); experiment: Inhibition of recombinant human CYP3A4 expressed in Escherichia coli using coumarin based substrate by fluorescence assay; assay type: ADME
[3] = Clearance in Beagle dog at 1 mg/kg, iv infusion or 2 mg/kg, po via gavage after 48 hrs; assay type: ADME, organism-based, Canis lupus familiaris; details: in vivo
Blood [4] = experiment: Preservation of LXA4 level in calcium ionophore A23187-stimulated asthmatic human whole blood preincubated for 30 mins followed by calcium ionophore A23187 stimulation and measured after 60 mins by LC-MS analysis; assay type: functional, tissue-based
[5] = Fraction unbound in cynomolgus monkey plasma by equilibrium dialysis based LC-MS analysis; assay type: ADME, cell-free, Macaca fascicularis
Cytochrome P450 2D6 = Cytochrome P450 2D6 (Homo sapiens, UniProt P10635); experiment: Inhibition of recombinant human CYP2D6 using coumarin based substrate by fluorescence assay; assay type: ADME
Cytochrome P450 2C19 = Cytochrome P450 2C19 (Homo sapiens, UniProt P33261); experiment: Inhibition of recombinant human CYP2C19 using coumarin based substrate by fluorescence assay; assay type: ADME
[6] = molecular target: T2, Leukotriene C4 synthase (Homo sapiens) (UniProt Q16873); experiment: Inhibition of LTC4S in asthmatic human whole blood assessed as inhibition of calcium ionophore A23187 stimulated cysteinyl leukotrienes production preincuabted for 30 mins followed by calcium ionophore stimulation and measured after 10 mins by LC-MS analysis; assay type: tissue-based
T2 sequence (whole entry): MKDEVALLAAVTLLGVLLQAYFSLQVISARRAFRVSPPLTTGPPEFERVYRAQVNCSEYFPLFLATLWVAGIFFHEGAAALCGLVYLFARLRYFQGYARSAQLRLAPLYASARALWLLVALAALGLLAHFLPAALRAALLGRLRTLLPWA

[7] = Fraction unbound in Sprague-Dawley rat plasma by equilibrium dialysis based LC-MS analysis; assay type: ADME, cell-free
Blood [8] = experiment: Preservation of LXA4 level in calcium ionophore A23187-stimulated healthy human whole blood preincubated for 30 mins followed by calcium ionophore A23187 stimulation and measured after 60 mins by LC-MS analysis; assay type: functional, tissue-based
[9] = molecular target: T2, Leukotriene C4 synthase (Homo sapiens)
[10] = Oral bioavailability in Han Wistar rat at 1 mg/kg after 24 hrs; assay type: ADME, organism-based; details: in vivo
[11] = molecular target: T3, Solute carrier organic anion transporter family member 1B1 (Homo sapiens, UniProt Q9Y6L6); experiment: Inhibition of OATP1B1 (unknown origin) expressed in HEK293 cells measured after 0.5 to 20 mins by scintillation counting analysis; assay type: ADME, cell-based
T3 sequence (Q9Y6L6 whole entry): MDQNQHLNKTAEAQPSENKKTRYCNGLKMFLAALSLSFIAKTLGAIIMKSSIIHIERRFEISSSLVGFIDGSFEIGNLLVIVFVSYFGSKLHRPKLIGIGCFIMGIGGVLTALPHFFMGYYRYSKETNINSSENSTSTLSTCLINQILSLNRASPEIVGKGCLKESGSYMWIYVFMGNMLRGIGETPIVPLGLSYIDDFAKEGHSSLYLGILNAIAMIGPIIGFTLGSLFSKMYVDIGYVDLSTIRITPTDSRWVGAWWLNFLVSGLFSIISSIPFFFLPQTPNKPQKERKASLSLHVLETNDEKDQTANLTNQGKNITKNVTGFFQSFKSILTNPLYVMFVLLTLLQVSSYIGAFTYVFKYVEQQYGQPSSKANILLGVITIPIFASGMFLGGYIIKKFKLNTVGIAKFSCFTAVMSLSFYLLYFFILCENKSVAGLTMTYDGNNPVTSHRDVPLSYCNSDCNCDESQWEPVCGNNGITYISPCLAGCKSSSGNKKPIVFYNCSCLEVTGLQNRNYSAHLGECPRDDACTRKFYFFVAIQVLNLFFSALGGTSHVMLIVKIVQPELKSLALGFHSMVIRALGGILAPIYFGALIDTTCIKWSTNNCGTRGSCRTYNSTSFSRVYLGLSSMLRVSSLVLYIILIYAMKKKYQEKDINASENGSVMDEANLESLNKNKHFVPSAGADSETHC

Cytochrome P450 1A2 = molecular target: T4, Cytochrome P450 1A2 (Homo sapiens, UniProt P05177); experiment: Inhibition of recombinant human CYP1A2 using coumarin based substrate by fluorescence assay; assay type: ADME
T4 sequence (P05177 whole entry): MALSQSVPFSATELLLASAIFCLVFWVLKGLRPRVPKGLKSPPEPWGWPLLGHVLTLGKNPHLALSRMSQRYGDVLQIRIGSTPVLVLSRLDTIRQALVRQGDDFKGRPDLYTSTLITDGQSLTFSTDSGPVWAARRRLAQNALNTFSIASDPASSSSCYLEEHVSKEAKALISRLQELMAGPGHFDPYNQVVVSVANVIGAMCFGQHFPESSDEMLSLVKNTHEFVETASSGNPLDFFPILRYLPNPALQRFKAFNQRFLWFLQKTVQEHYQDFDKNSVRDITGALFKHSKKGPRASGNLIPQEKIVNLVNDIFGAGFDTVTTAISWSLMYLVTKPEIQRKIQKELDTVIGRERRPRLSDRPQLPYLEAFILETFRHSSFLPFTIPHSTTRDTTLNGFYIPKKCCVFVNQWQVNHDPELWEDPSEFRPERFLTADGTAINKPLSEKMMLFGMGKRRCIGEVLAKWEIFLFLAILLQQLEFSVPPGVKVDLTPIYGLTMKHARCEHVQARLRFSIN

Sequence of Cytochrome P450 2D6 (P10635 whole entry): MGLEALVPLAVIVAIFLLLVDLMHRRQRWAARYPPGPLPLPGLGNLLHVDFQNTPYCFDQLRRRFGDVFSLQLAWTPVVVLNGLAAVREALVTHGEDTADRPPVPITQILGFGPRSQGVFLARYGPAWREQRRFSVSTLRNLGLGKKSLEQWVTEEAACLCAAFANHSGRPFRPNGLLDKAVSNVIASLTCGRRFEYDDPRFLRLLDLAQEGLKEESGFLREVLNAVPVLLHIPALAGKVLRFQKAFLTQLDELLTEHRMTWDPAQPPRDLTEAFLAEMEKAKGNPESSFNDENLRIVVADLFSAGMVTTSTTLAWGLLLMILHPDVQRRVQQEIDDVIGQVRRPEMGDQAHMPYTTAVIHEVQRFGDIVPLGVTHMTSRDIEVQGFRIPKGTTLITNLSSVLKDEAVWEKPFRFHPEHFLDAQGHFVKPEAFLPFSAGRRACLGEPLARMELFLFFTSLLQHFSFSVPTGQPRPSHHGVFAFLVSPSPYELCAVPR
Sequence of Cytochrome P450 3A4 (P08684 whole entry, the tested form may be a part): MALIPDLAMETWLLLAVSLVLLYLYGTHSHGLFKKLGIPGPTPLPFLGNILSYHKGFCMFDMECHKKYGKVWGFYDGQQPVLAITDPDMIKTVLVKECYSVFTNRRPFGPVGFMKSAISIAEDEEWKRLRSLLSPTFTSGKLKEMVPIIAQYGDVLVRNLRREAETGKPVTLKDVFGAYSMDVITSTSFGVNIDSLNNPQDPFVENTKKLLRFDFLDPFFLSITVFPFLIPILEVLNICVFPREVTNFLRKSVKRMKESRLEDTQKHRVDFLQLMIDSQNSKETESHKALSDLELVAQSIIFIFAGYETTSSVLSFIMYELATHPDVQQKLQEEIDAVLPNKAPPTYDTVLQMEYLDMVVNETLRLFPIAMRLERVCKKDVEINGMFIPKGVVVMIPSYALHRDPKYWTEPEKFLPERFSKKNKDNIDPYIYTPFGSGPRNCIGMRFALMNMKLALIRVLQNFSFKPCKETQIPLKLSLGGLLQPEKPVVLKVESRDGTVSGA
Sequence of Cytochrome P450 2C19 (P33261 whole entry): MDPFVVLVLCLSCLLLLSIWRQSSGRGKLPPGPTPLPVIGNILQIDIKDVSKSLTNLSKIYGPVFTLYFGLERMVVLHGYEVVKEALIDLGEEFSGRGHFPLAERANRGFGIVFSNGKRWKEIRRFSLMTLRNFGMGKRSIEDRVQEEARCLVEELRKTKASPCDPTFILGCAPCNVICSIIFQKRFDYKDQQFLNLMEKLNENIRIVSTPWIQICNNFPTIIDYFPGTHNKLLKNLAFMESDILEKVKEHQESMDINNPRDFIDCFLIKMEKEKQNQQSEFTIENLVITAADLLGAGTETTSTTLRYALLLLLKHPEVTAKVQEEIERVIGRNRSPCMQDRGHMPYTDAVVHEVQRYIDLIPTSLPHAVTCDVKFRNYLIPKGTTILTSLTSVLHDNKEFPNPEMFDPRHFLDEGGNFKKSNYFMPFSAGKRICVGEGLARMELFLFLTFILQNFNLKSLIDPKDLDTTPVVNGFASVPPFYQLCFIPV

inhibition (INH) [1]: Not Active | half-life [2]: 6.1 h | IC50 (Cytochrome P450 3A4): > 30 µM | clearance [3]: 1.8 mL/min/kg | fraction unbound [5]: 0.03 | IC50 (Cytochrome P450 2D6): > 30 µM | IC50 (Cytochrome P450 2C19): > 30 µM | inhibition [6]: Active | fraction unbound [7]: 0.025 | fIC50 [9]: 6.2 nM | bioavailability [10]: 100% | INH [11]: 3.2 µM | IC50 (Cytochrome P450 1A2): > 30 µM
SMILES: COc1nc(N(CC(C)(C)F)c2cc(Cl)c(F)cc2F)cnc1C(=O)[C@H]1C[C@@H]1C(=O)O [AZD-9898]
Activity (Blood [4]): Dose-dependent effect | Activity (Blood [8]): Dose-dependent effect
